Legend:
Format in all cases: cell-based
[1] = tested on: MCF7 (human breast adenocarcinoma) cell line; experiment: MTT in vitro cytotoxicity assay, MCF7; conditions: 24 h incubation with complex, three independent experiments, read-out: IC50 against MCF7
Protocol: (§1) The cells were seeded at 3×10^3 cells/well in 100 μL of Dulbecco's Modified Eagle's Medium (DMEM) containing 10% fetal bovine serum (FBS) in a 96-well tissue culture plate and incubated for 72 h at 37° C., 5% CO2 and 90% relative humidity in a CO2 incubator. After incubation, 100 μL of 100, 50, 25 and 12.5 μM solutions of cisplatin and gold(I) complexes prepared in Dulbecco's Modified Eagle's Medium (DMEM) was each added to the cells and the cultures were incubated for 24 h. The medium in the wells was casted off, and 100 μL of DMEM containing MTT (0.5 mg/mL) was added to the wells, which were subsequently incubated in the CO2 incubator at 37° C. in the dark for 4 h. After incubation, purple-colored formazan produced by the cells appeared as dark crystals in the bottom of the wells. The culture medium was carefully removed from each well to prevent disruption of the monolayer, and 100 μL of dimethyl sulfoxide (DMSO) was added in each well. The solution in the wells was thoroughly mixed to dissolve the formazan crystals which produced a purple solution. The absorbance of the 96 well-plates was measured at 570 nm with Labsystems Multiskan EX ELISA reader against a reagent blank. The experimental results were calculated as micro-molar concentration for 50% cell growth inhibition (IC50) of each drug. The MTT assay was carried out in three independent experiments, each in triplicate. […]

[2] = tested on: HCT15 (human colon cancer) cell line; experiment: MTT in vitro cytotoxicity assay, HCT15; conditions: 24 h incubation with complex, three independent experiments, read-out: IC50 against HCT15
Protocol: as §1

[3] = tested on: A549 (human lung carcinoma) cell line; experiment: MTT in vitro cytotoxicity assay, A549; conditions: 24 h incubation with complex, three independent experiments, read-out: IC50 against A549
Protocol: as §1

Compound | IC50 [1] [µM] | IC50 [2] [µM] | IC50 [3] [µM]
[Au(IPr)(ImSe]PF6 [Complex (II)] | 43 ± 2 | 33 ± 1 | 47 ± 1
N.N.[Cl][Pt][Cl] [Cisplatin, cisplatin, reference compound] | – | 33 ± 2 | –

Reference: patent US10189865B1, “Gold(I) complexes, pharmaceutical compositions thereof, and methods of treating proliferative disorders” (King Fahd University of Petroleum and Minerals, priority 2018, dated 2019)
